Measured values published in paper PMC2775441 (Pediatric blood & cancer, 2009).
Marks after values point to notes of the source that are not given here.

Key:
[1] = Phase I dose escalation: dose-limiting toxicity, MTD and adverse events; details: human, in vivo
[2] = tested on: refractory pediatric central nervous system tumors; test: Tumor response by neuro-imaging; format: in vivo, human
[3] = Plasma pharmacokinetics of SU5416 and its metabolites; format: in vivo, human; details: for half-life: human, plasma, iv
[4] = adults, interval between successive doses less than 7 days; ref [20]; cited from earlier work
[5] = ref [11]; cited from earlier work
[6] = tested on: CYP3A4; details: ref [33], [39]; cited from earlier work
[7] = adults with solid tumors, ref [16], [18], [23]–[25], [30], cited from earlier work
[8] = Stratum I (no EIACD), 110 mg/m^2 IV, week 1, 13 patients, mean ± SD
[9] = Stratum I (no EIACD), 110 mg/m^2 IV, week 6, 10 patients, mean ± SD
[10] = Stratum I (no EIACD), 145 mg/m^2 IV, week 1, 6 patients, mean ± SD
[11] = Stratum I (no EIACD), 145 mg/m^2 IV, week 6, 3 patients, mean ± SD
[12] = Stratum I (no EIACD), all doses IV, week 6, 13 patients, mean ± SD
[13] = Stratum II (EIACD), 35 mg/m^2 IV, week 1, 1 patient
[14] = Stratum II (EIACD), 48 mg/m^2 IV, week 1, 2 patients, mean ± SD
[15] = Stratum II (EIACD), 65 mg/m^2 IV, week 1, 6 patients, mean ± SD
[16] = Stratum II (EIACD), all doses IV, week 1, 9 patients, mean ± SD
[17] = Stratum I (no EIACD), SU5416 110 mg/m^2 IV, week 1, 13 patients, mean ± SD
[18] = Stratum I (no EIACD), SU5416 110 mg/m^2 IV, week 6, 10 patients, mean ± SD
[19] = Stratum I (no EIACD), SU5416 145 mg/m^2 IV, week 1, 6 patients, mean ± SD
[20] = Stratum I (no EIACD), SU5416 145 mg/m^2 IV, week 6, 3 patients, mean ± SD
[21] = Stratum I (no EIACD), all SU5416 doses IV, week 1, 19 patients, mean ± SD
[22] = Stratum I (no EIACD), all SU5416 doses IV, week 6, 13 patients, mean ± SD
[23] = Stratum II (EIACD), SU5416 35 mg/m^2 IV, week 1, 1 patient
[24] = Stratum II (EIACD), SU5416 48 mg/m^2 IV, week 1, 2 patients, mean ± SD
[25] = Stratum II (EIACD), SU5416 65 mg/m^2 IV, week 1, 6 patients, mean ± SD
[26] = Stratum II (EIACD), all SU5416 doses IV, week 1, 9 patients, mean ± SD

## Cc1cc(C)c(/C=C2\C(=O)Nc3ccccc32)[nH]1 [SU5416, semaxanib]
[1]
  most serious drug-related toxicities: grade 3 liver enzyme abnormalities, arthralgia and hallucinations
[2]; Pt 1, Glioblastoma Multiforme, Spinal Cord
  Stable Disease Duration (months): 5.3 months
[2]; Pt 1, Glioblastoma Multiforme, tumor size, 1.4 months from treatment
  Change from baseline (%): 0%
[2]; Pt 3, Choroid Plexus Carcinoma, Cerebrum
  Stable Disease Duration (months): 14.3 months
[2]; Pt 8, Glioblastoma Multiforme, FLAIR, 2.7 months from treatment, baseline 32.7
  Tumor size: 35.5 cm^3
[2]; Pt 8, Glioblastoma Multiforme, FLAIR, 8.1 months from treatment, baseline 32.7
  Tumor size: 29.1 cm^3
[2]; Pt 8, Glioblastoma Multiforme, FLAIR, 9.7 months from treatment, baseline 32.7
  Tumor size: 23.9 cm^3
[2]; Pt 8, Glioblastoma Multiforme, FLAIR, 11.1 months from treatment, baseline 32.7
  Tumor size: 30.5 cm^3
[2]; Pt 8, Glioblastoma Multiforme, FLAIR, 15.9 months from treatment, baseline 32.7
  Tumor size: 28.9 cm^3
[2]; Pt 8, Glioblastoma Multiforme, Parietal lobe
  Stable Disease Duration (months): 15.9 months
[2]; Pt 19, Astrocytoma, Anaplastic, Frontal lobe
  Stable Disease Duration (months): 10.6 months
[2]; Pt 26, Astrocytoma, NOS, Enhancement, 2.6 months from treatment, baseline 28.1
  Tumor size: 31.9 cm^2
[2]; Pt 26, Astrocytoma, NOS, Enhancement, 4.4 months from treatment, baseline 28.1
  Tumor size: 34.7 cm^2
[2]; Pt 26, Astrocytoma, NOS, Enhancement, 5.9 months from treatment, baseline 28.1
  Tumor size: 34.7 cm^2
[2]; Pt 26, Astrocytoma, NOS, Supratentorial
  Stable Disease Duration (months): 5.9 months
[2]; Stratum I, 16 evaluable
  Radiographic response after course 1: CR or PR (number of patients): 0
  Radiographic response after course 1: PD (number of patients): 10
  Radiographic response after course 1: PD (percent of evaluable patients): 63%
  Radiographic response after course 1: SD (number of patients): 6
  Radiographic response after course 1: SD (percent of evaluable patients): 38%
[2]; Stratum I, patients evaluable for response
  patients with sustained (prolonged) stable disease of possible clinical benefit: 4 of 16
[2]; Stratum II, 6 evaluable
  Radiographic response after course 1: CR or PR (number of patients): 0
  Radiographic response after course 1: PD (number of patients): 5
  Radiographic response after course 1: PD (percent of evaluable patients): 83%
  Radiographic response after course 1: SD (number of patients): 1
  Radiographic response after course 1: SD (percent of evaluable patients): 17%
[2]; either stratum
  objective responses: No objectives responses
[3]; [8]
  CL (total body clearance): 28.7 ± 12.8 ^a liter/h/m^2
  Vz (apparent volume of distribution): 43.3 ± 20.3 liter/m^2
[3]; [9]
  CL (total body clearance): 38.0 ± 28.7 liter/h/m^2
  Vz (apparent volume of distribution): 65.5 ± 26.7 liter/m^2
[3]; [10]
  CL (total body clearance): 21.3 ± 11.5 liter/h/m^2
  Vz (apparent volume of distribution): 39.1 ± 24.8 liter/m^2
[3]; [11]
  CL (total body clearance): 26.1 ± 17.1 liter/h/m^2
  Vz (apparent volume of distribution): 37.2 ± 33.5 liter/m^2
[3]; [12]
  CL (total body clearance): 34.9 ± 24.9 liter/h/m^2
  Vz (apparent volume of distribution): 57.5 ± 34.6 liter/m^2
[3]; [13]
  CL (total body clearance): 33.1 liter/h/m^2
  Vz (apparent volume of distribution): 23.5 liter/m^2
[3]; [14]
  CL (total body clearance): 48.0 ± 5.1 liter/h/m^2
  Vz (apparent volume of distribution): 74.3 ± 71.7 liter/m^2
[3]; [15]
  CL (total body clearance): 27.8 ± 11.4 liter/h/m^2
  Vz (apparent volume of distribution): 45.5 ± 26.7 liter/m^2
[3]; [16]
  CL (total body clearance): 32.0 ± 13.1 liter/h/m^2
  Vz (apparent volume of distribution): 47.1 ± 30.6 liter/m^2
[3]; 48 mg/m2, t1/2,z (terminal phase half-life), Stratum II (EIACD), 48 mg/m^2 IV, week 1, 2 patients, mean ± SD
  half-life: 1.07 ± 0.9 h
[3]; 65 mg/m2, t1/2,z (terminal phase half-life), Stratum II (EIACD), 65 mg/m^2 IV, week 1, 6 patients, mean ± SD
  half-life: 1.13 ± 0.62 h
[4]
  increase of clearance upon repeated administration: more than 50%
[5]
  penetration into the CSF: does not penetrate the CSF
[6]
  role of CYP3A4 in elimination of SU5416: major isozyme catalyzing the initial oxidation
[7]; intravenously twice weekly
  MTD in adults: 145 mg/m^2
[7]
  Dose-limiting toxicities in adults: headache, nausea, and vomiting

## Cc1cc(C(=O)O)[nH]c1C=C1C(=O)Nc2ccccc21 [SU6595]
[3]; [17]
  Relative extent of metabolism (%), AUC(0-t) metabolite/parent: SU6595: 57.4 ± 36.4%
[3]; [18]
  Relative extent of metabolism (%), AUC(0-t) metabolite/parent: SU6595: 72.9 ± 43.9%
[3]; [19]
  Relative extent of metabolism (%), AUC(0-t) metabolite/parent: SU6595: 37.4 ± 25.3%
[3]; [20]
  Relative extent of metabolism (%), AUC(0-t) metabolite/parent: SU6595: 72.4 ± 26.1%
[3]; [21]
  Relative extent of metabolism (%), AUC(0-t) metabolite/parent: SU6595: 50.1 ± 33.2%
[3]; [22]
  Relative extent of metabolism (%), AUC(0-t) metabolite/parent: SU6595: 72.8 ± 39.1%
[3]; [23]
  Relative extent of metabolism (%), AUC(0-t) metabolite/parent: SU6595: 55.2%
[3]; [24]
  Relative extent of metabolism (%), AUC(0-t) metabolite/parent: SU6595: 26.4 ± 1.1%
[3]; [25]
  Relative extent of metabolism (%), AUC(0-t) metabolite/parent: SU6595: 57.3 ± 20.4%
[3]; [26]
  Relative extent of metabolism (%), AUC(0-t) metabolite/parent: SU6595: 48.1 ± 21.3%

## Cc1cc(CO)[nH]c1/C=C1\C(=O)Nc2ccccc21 [SU9838]
[3]; [17]
  Relative extent of metabolism (%), AUC(0-t) metabolite/parent: SU9838: 3.95 ± 1.59%
[3]; [18]
  Relative extent of metabolism (%), AUC(0-t) metabolite/parent: SU9838: 4.41 ± 2.28%
[3]; [19]
  Relative extent of metabolism (%), AUC(0-t) metabolite/parent: SU9838: 3.98 ± 2.13%
[3]; [20]
  Relative extent of metabolism (%), AUC(0-t) metabolite/parent: SU9838: 5.24 ± 0.81%
[3]; [21]
  Relative extent of metabolism (%), AUC(0-t) metabolite/parent: SU9838: 3.96 ± 1.68%
[3]; [22]
  Relative extent of metabolism (%), AUC(0-t) metabolite/parent: SU9838: 4.59 ± 2.11%
[3]; [23]
  Relative extent of metabolism (%), AUC(0-t) metabolite/parent: SU9838: 2.44%
[3]; [24]
  Relative extent of metabolism (%), AUC(0-t) metabolite/parent: SU9838: 4.07 ± 1.37%
[3]; [25]
  Relative extent of metabolism (%), AUC(0-t) metabolite/parent: SU9838: 5.72 ± 3.41%
[3]; [26]
  Relative extent of metabolism (%), AUC(0-t) metabolite/parent: SU9838: 4.82 ± 2.69%
